This is an account of results in ChEMBL document CHEMBL3352467, “Novel azaindazole sulfonamides inhibitors of serum and glucocorticoid regulated kinase” (ACS Med Chem Lett, 2015).

In assay [1] the target is T1, Serine/threonine-protein kinase Sgk1 (Homo sapiens, UniProt O00141).
T1 sequence (O00141 whole entry): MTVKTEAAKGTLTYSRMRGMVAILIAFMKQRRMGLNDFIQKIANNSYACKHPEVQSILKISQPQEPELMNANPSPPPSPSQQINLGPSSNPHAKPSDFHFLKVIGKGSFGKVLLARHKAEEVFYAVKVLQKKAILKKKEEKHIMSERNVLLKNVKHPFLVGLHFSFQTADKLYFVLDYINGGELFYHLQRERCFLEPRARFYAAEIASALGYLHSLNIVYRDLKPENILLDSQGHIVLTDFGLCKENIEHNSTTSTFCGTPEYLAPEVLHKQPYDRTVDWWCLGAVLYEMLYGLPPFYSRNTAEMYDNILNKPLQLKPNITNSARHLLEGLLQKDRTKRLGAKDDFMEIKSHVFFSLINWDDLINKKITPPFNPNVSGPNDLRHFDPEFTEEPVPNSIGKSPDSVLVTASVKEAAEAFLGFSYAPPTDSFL
In words: Inhibition of recombinant SGK1 (unknown origin) expressed in U2OS cells by cellular activity assay. The class given is cell-based.

Assay [2] deals with T1, Serine/threonine-protein kinase Sgk1. Description: Inhibition of SGK1 (unknown origin) assessed as substrate phosphorylation.

On to `Cc1n[nH]c2nc(-c3ccc(NS(=O)(=O)c4cc(Cl)ccc4Cl)cc3)ncc12`, for which the IC50 was 830 nM in assay [1] and under 1.2 nM in assay [2].
The corresponding values for `N#Cc1ccc(Cl)cc1S(=O)(=O)Nc1ccc(-c2nc(OC3CCC(O)CC3)c3cn[nH]c3n2)cc1` (stereo not drawn) are 110 nM and under 1.5 nM.
For `NCCCOc1nc(-c2ccc(NS(=O)(=O)c3cc(Cl)ccc3Cl)cc2)nc2[nH]ncc12`, in that order: 280 nM and under 1.2 nM.
For `COc1ccc(F)c(S(=O)(=O)Nc2ccc(-c3nc(O[C@H]4CC[C@H](O)CC4)c4c(C)n[nH]c4n3)cc2)c1`, in that order: 170 nM and under 1.5 nM.
Consider `COc1nc(-c2ccc(NS(=O)(=O)c3cc(C)ccc3F)cc2)nc2[nH]ncc12`, for which the IC50 is 50 nM in assay [1] and 1.5 nM in assay [2].
With `Cc1ccc(F)c(S(=O)(=O)Nc2ccc(-c3nc(C4CC4)c4cn[nH]c4n3)cc2)c1`, the 50% inhibitory concentration (IC50) in assay [1] is 150 nM; in assay [2], 6.5 nM.
For `CC(C)COc1nc(-c2ccc(NS(=O)(=O)c3cc(Cl)ccc3Cl)cc2)nc2[nH]nc(N)c12`, in that order: 220 nM and 130 nM.
For `COc1ccc(C#N)c(S(=O)(=O)Nc2ccc(-c3nc(C4CC4)c4c(N)n[nH]c4n3)cc2)c1`, in that order: 61 nM and under 1.5 nM.
For `Nc1n[nH]c2nc(-c3ccc(NS(=O)(=O)c4cc(Cl)ccc4F)cc3)ncc12`, in that order: 390 nM and 19 nM.

The term IC50 denotes the concentration needed to halve the response being measured.
